SMILES strings stand for the structures.

The target of this experiment is Exportin-1 (Homo sapiens, UniProt O14980). The experiment is described as follows: Inhibition of CRM1 in human HeLa cells expressing GFP which is N-terminally fused to nuclear localization and C-terminally fused to nuclear export signal of PKI assesed as reduction in GFP subcellular localization incubated for 3 hrs by nuclear export assay. In kind it is cell-based.
Exportin-1, sequence (O14980 whole entry, the tested form may be a part): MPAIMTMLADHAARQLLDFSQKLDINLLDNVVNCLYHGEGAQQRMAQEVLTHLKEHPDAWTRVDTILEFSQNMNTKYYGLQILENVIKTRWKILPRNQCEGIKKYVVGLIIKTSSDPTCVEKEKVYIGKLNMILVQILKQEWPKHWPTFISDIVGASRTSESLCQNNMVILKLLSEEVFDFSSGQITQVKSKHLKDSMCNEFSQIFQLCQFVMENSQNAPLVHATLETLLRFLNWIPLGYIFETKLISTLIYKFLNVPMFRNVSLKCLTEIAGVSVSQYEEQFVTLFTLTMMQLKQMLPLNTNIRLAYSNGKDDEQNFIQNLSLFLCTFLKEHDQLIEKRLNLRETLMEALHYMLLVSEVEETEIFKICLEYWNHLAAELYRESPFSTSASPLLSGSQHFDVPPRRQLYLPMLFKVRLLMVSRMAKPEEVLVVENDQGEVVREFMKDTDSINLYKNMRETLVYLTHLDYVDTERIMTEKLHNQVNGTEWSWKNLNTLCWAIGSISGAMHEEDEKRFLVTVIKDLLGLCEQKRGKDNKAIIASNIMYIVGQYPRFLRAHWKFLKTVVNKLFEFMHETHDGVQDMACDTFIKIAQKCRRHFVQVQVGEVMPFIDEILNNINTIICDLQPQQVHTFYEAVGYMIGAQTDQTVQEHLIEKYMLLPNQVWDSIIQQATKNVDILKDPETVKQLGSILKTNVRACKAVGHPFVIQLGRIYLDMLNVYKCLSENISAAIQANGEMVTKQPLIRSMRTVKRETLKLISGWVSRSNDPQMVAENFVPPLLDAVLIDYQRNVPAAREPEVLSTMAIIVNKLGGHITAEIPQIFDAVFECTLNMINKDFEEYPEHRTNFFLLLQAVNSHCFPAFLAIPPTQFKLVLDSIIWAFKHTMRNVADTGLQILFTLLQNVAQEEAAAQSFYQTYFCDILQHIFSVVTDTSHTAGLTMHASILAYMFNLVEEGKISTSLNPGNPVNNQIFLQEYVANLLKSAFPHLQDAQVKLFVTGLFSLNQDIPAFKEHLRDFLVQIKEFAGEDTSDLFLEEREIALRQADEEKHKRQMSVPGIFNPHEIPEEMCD

As a reminder, the EC50 is the concentration giving half of the maximal effect. Lower therefore signals higher potency in that assay. As to `C=C(Cn1nnc(-c2cccc(C(F)(F)F)c2)n1)C(=O)OCC`, a half-maximal effect (EC50) was put at 30 µM.
With `C=C(Cn1nnc(-c2cccc(Cl)c2)n1)C(=O)OCC`, the EC50 was found to be 30 µM.

Source of the values: ChEMBL document CHEMBL4256942, “Exo Olefin-Containing Nuclear Transport Modulators and Uses Thereof” (2016).
